What was measured:
[1] = humans; cited from earlier work
[2] = according to the literature; cited from earlier work
[3] = rats; cited from earlier work
[4] = fortified foods, dual isotope techniques; cited from earlier work
[5] = Calcium, magnesium and zinc balance in rats receiving calcium free diet
Excerpt: Male Sprague-Dawley rats (about 6-7 weeks), with an initial weight between 220 g to 250 g, were randomly divided into different treatment groups. All the rats were housed in individual metabolic cages in a temperature-controlled room. Each rat received free access to the normal diet (Table 34) before the experiment. Both normal and calcium free diets (Table 34) were used in this set of studies. De-ionized water was provided ad libitum. All the rats were weighed before treatment.
In each study, there were seven treatment groups. […] Rats participating in the normal diet study received normal diet ad libitum throughout. Rats participating in the group of calcium free diet received the calcium free food ad libitum starting five days before and throughout treatment. In both study groups, animals received one dose a day for five days. […] Values of dosage and dietary intake were measured for the calculation of elemental balance. […] Daily elemental dosages, similar to that of human's, are 53.14 mg/kg for calcium, 0.38 to 55 mg/kg/day for magnesium and 0.017 to 2.5 mg/kg/day for zinc. […] The vehicle for preparing each dose was de-ionized water. The concentration of calcium in all dosage preparations was 15.94 mg/mL. One mL of each preparation was administered by gavage. Body weight, elemental dosage and diet consumption were recorded daily.
Animals were housed individually in a metabolic cage five days before the study. Food consumption was evaluated daily. Urine and feces were collected daily for four days and the content of calcium, magnesium and zinc was determined. On Day 5, each animal received its treatment. […] Immediately after blood collection, the animal was then sacrificed with an overdose of isoflourane. Each blood sample was centrifuged at 1900 rpm at room temperature; plasma was harvested and stored at −20° C. until analysis. Urine was measured daily; it was diluted with de-ionized water, filtered and an aliquot was stored at −20° C. until analysis. Daily fecal output was collected and lyophilized. Each sample was weighed and digested using a mixture of three volume of nitric acid and one volume of perchloric acid. For every gram of dried feces, 10 mL of acid mixture was added. Each sample was digested for three days. The volume of the digested sample was measured and an aliquot of the digest was stored at −20° C. until analysis. The content of calcium, magnesium and zinc in plasma, feces and urine were determined using ICP-OES.
Cumulated calcium balance and % cumulated net calcium balance were calculated using equations (1) and (2), except, the sum of daily intake and excretion was used for calculation. The balance for magnesium and zinc was also calculated using the concept of equations (1) and (2). Cumulated elemental balance and % cumulated net elemental balance were calculated in a similar fashion as described above.
All results were analyzed using two-way ANOVA. […] The data are presented as mean±S.D. and mean±S.E.M. in tables and figures, respectively.

Molecule: O=C([O-])[O-].[Ca+2] [calcium carbonate]
- Amount of calcium absorbed (bioavailability) [1]: 24%

Molecule: O=C([O-])CC(O)(CC(=O)[O-])C(=O)[O-].O=C([O-])CC(O)(CC(=O)[O-])C(=O)[O-].[Ca+2].[Ca+2].[Ca+2] [calcium citrate]
- Bioavailability of calcium [2]: 30%

Molecule: [O]=[Mg] [magnesium oxide]
- Bioavailability of magnesium [3]: 50%

Molecule: [O]=[Zn] [zinc oxide]
- Bioavailability of zinc [4]: approximately 24%

Molecule: Calcium Acetate
- Bioavailability of calcium compared to calcium carbonate ([5]; Tables 36 and 40, dependent on the diet condition): at least 2 fold
- Cumulative net percentage of calcium ([5]; calcium free diet, Day 1): −30.6 ± 51.3 ^ %
- Cumulative net percentage of calcium ([5]; calcium free diet, Day 2): −9.88 ± 26.5 ^ %
- Cumulative net percentage of calcium ([5]; calcium free diet, Day 3): 4.88 ± 24.0 ^ %
- Cumulative net percentage of calcium (calcium retention) ([5]; calcium free diet, Day 4): 11.1 ± 20.0 ^ %
